Reference: PMC9142520, “Molecular encoding and synaptic decoding of context during salt chemotaxis in C. elegans” (Nature Communications, 2022)

Target: T1, GLR-1(+STG-1, SOL-1) (Caenorhabditis elegans, UniProt P34299)
T1 construct: cRNAs of GLR-1, SOL-1 and STG-1 co-injected into Xenopus laevis oocytes; homomeric GLR-1 with auxiliary proteins; with CUB domain-containing protein SOL-1 (suppressor of lurcher 1); Stargazin-like protein STG-1
T1 sequence (P34299 26-962): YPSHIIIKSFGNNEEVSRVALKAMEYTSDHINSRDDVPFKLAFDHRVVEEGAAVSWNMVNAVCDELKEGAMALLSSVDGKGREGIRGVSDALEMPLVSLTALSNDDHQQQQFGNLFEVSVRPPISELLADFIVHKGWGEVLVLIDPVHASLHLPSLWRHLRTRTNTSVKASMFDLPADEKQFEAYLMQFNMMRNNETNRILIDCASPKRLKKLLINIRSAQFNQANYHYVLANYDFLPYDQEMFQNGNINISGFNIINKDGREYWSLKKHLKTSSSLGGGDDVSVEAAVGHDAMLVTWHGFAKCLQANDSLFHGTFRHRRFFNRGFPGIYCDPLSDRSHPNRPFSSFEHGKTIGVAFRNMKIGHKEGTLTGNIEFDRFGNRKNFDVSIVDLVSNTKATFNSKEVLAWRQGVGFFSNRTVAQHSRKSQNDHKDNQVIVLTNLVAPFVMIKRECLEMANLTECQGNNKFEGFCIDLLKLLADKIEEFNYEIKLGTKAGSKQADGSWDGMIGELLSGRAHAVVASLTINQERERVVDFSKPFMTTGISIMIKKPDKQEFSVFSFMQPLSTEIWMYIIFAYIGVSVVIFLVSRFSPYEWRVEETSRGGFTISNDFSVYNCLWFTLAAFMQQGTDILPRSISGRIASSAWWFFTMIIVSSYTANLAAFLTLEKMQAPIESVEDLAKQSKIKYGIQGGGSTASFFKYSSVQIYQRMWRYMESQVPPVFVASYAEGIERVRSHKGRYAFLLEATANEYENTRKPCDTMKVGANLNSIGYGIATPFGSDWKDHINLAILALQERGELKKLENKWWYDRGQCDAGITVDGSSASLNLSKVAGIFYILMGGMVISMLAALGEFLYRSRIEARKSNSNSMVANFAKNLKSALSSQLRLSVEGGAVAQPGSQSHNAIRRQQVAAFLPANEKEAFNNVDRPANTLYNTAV
T1 sequence (Q15KL0 1-366 partner): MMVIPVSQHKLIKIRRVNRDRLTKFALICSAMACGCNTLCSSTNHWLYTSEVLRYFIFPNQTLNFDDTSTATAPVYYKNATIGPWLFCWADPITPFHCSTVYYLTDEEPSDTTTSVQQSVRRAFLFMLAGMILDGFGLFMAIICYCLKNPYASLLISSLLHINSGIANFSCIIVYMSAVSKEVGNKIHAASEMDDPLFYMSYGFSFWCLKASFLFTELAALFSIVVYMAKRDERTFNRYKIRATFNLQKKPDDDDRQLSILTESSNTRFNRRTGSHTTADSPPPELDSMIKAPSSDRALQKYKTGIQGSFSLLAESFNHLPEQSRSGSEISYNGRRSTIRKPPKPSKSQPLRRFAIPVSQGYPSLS
T1 sequence (Q93212 24-594 partner): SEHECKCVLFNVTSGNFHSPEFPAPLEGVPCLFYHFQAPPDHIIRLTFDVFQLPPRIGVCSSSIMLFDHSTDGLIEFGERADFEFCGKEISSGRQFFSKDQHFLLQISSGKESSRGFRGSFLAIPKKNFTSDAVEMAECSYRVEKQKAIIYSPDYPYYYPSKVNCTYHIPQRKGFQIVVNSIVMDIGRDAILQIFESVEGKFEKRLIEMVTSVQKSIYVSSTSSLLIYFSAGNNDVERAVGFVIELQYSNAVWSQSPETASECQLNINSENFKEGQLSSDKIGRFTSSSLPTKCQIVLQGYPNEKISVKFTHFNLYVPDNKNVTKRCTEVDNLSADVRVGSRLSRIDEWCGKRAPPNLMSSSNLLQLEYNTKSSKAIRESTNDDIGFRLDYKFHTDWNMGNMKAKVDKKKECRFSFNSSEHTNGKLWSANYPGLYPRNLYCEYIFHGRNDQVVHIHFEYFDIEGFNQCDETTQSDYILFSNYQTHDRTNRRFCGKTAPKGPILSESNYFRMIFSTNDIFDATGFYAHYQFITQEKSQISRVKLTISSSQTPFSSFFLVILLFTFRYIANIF
Assay: two-electrode voltage clamp of Xenopus oocytes, glutamate dose-response current
Assay type: cell-based
Conditions: agonist; inward cation current; with SOL-1 and STG-1; clamped -50 to -60 mV; pH 7.2; 0.1-10 mM glutamate for 20 s

## N[C@@H](CCC(=O)O)C(=O)O [glutamate]
  two-electrode voltage clamp of Xenopus oocytes, glutamate dose-response current: Dose-response relationship of GLR-1-expressing Xenopus oocyte
